Assay results from PubChem BioAssay AID248 (DTP/NCI, 2004).
Values joined by “and” are separate entries in the source; they are usually repeats but may differ in a detail not shown here. Equal entries are not always repeated. Inconclusive results and toxic doses are left out. No stated cut-off is given here; in the data, active means T/C of 150% or more; inactive means T/C below 125%.

Test system: L1210 leukemia ip in BDF1 mice, survival T/C
Assay: NCI In Vivo Anticancer Drug Screen. Data for tumor model L1210 Leukemia (intraperitoneal) in B6D2F1 (BDF1) mice
Conditions: endpoint: mean survival time, higher = longer survival
Summary of the method: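 Read-out is survival time, reported as the treated-group measurement over the vehicle-control measurement.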

[1] = dose: 50.0 mg/kg/injection, schedule: Q01DX009 (ip), vehicle: Klucel (hydroxypropylcellulose) (HPC)
[2] = dose: 100.0 mg/kg/injection, schedule: Q01DX009 (ip), vehicle: Klucel (hydroxypropylcellulose) (HPC)
[3] = dose: 100.0 mg/kg/injection, schedule: Q04DX003 (ip), vehicle: Klucel (hydroxypropylcellulose) (HPC)
[4] = dose: 200.0 mg/kg/injection, schedule: Q01DX009 (ip), vehicle: Klucel (hydroxypropylcellulose) (HPC)
[5] = dose: 200.0 mg/kg/injection, schedule: Q04DX003 (ip), vehicle: Klucel (hydroxypropylcellulose) (HPC)
[6] = dose: 400.0 mg/kg/injection, schedule: Q04DX003 (ip), vehicle: Klucel (hydroxypropylcellulose) (HPC)
[7] = dose: 100.0 mg/kg/injection, schedule: Q01DX001 (ip), vehicle: saline
[8] = dose: 200.0 mg/kg/injection, schedule: Q01DX001 (ip), vehicle: saline
[9] = dose: 400.0 mg/kg/injection, schedule: Q01DX001 (ip), vehicle: saline
[10] = dose: 100.0 mg/kg/injection, schedule: Q04DX003 (ip), vehicle: saline with Tween-80
[11] = dose: 200.0 mg/kg/injection, schedule: Q04DX003 (ip), vehicle: saline with Tween-80
[12] = dose: 400.0 mg/kg/injection, schedule: Q04DX003 (ip), vehicle: saline with Tween-80
[13] = dose: 50.0 mg/kg/injection, schedule: Q01DX001 (ip), vehicle: saline
[14] = dose: 400.0 mg/kg/injection, schedule: Q01DX009 (ip), vehicle: Klucel (hydroxypropylcellulose) (HPC)
[15] = dose: 25.0 mg/kg/injection, schedule: Q01DX009 (ip), vehicle: Klucel (hydroxypropylcellulose) (HPC)

Measured: T/C

CN(C)C(=O)C1Cc2ccccc2CC1C(=O)N(C)C (stereo not drawn)
inactive: [1] 97 % of control | [2] 97 % of control | [3] 101 % of control | [4] 101 % of control | [5] 102 % of control | [6] 97 % of control

O=c1cccccc1O.O=c1cccccc1O.[Cu]
inactive: dose: 1.56 mg/kg/injection, schedule: Q01DX009 (ip), vehicle: Klucel (hydroxypropylcellulose) (HPC) 97 % of control | dose: 3.12 mg/kg/injection, schedule: Q01DX009 (ip), vehicle: Klucel (hydroxypropylcellulose) (HPC) 94 % of control | dose: 6.0 mg/kg/injection, schedule: Q04DX003 (ip), vehicle: saline 94 % of control | dose: 6.25 mg/kg/injection, schedule: Q01DX009 (ip), vehicle: Klucel (hydroxypropylcellulose) (HPC) 94 % of control | dose: 12.0 mg/kg/injection, schedule: Q04DX003 (ip), vehicle: saline 95 % of control | dose: 25.0 mg/kg/injection, schedule: Q04DX003 (ip), vehicle: saline 102 % of control

Clc1nc(Cl)nc(Cl)n1
inactive: dose: 100.0 mg/kg/injection, schedule: Q04DX002 (ip), vehicle: other 98 % of control | dose: 200.0 mg/kg/injection, schedule: Q04DX002 (ip), vehicle: other 95 % of control

CNS(=O)(=O)c1ccc(C(N)=S)cc1
inactive: dose: 100.0 mg/kg/injection, schedule: Q01DX001 (ip), vehicle: gum acacia 93 % of control | dose: 200.0 mg/kg/injection, schedule: Q01DX001 (ip), vehicle: gum acacia 106 % of control | dose: 400.0 mg/kg/injection, schedule: Q01DX001 (ip), vehicle: gum acacia 98 % of control

Cc1cccc(-c2nc3cc(Cl)ccc3c(=O)o2)c1
inactive: [3] 97 % of control | [5] 90 % of control

CCCNC(=O)NC1CCCCC1
inactive: dose: 264.0 mg/kg/injection, schedule: Q01DX001 (ip), vehicle: carboxymethylcellulose (CMC) 101 % of control | dose: 400.0 mg/kg/injection, schedule: Q01DX001 (ip), vehicle: carboxymethylcellulose (CMC) 90 % of control | dose: 600.0 mg/kg/injection, schedule: Q01DX001 (ip), vehicle: carboxymethylcellulose (CMC) 98 % of control

CCCN(CCC)CC(C)=O
inactive: dose: 100.0 mg/kg/injection, schedule: Q01DX009 (ip), vehicle: saline 98 % of control | dose: 100.0 mg/kg/injection, schedule: Q04DX003 (ip), vehicle: saline 107 % of control | dose: 200.0 mg/kg/injection, schedule: Q01DX009 (ip), vehicle: saline 101 % of control | dose: 200.0 mg/kg/injection, schedule: Q04DX003 (ip), vehicle: saline 109 % of control

O=C1OC2=C(c3ccccc3)C(=O)OC2=C1c1ccccc1
inactive: [7] 97 % of control | [8] 104 % of control | [9] 95 % of control

Cc1ccc(C(=O)/C=C/c2ccccc2O)cc1
inactive: dose: 100.0 mg/kg/injection, schedule: Q01DX009 (ip), vehicle: saline with Tween-80 100 % of control | [10] 105 % of control | dose: 200.0 mg/kg/injection, schedule: Q01DX009 (ip), vehicle: saline with Tween-80 98 % of control | [11] 100 % of control | dose: 400.0 mg/kg/injection, schedule: Q01DX009 (ip), vehicle: saline with Tween-80 94 % of control | [12] 98 % of control

CC[N+](CC)(CC)CCNC(c1ccccc1)C(Cl)(Cl)Cl (stereo not drawn)
inactive: dose: 12.5 mg/kg/injection, schedule: Q01DX001 (ip), vehicle: saline 97 % of control | dose: 25.0 mg/kg/injection, schedule: Q01DX001 (ip), vehicle: saline 87 % of control | [13] 95 % of control

NOCC(=O)O
inactive: dose: 5.0 mg/kg/injection, schedule: Q01DX Z (ip), vehicle: saline 112 % of control | dose: 8.0 mg/kg/injection, schedule: Q01DX Z (ip), vehicle: saline 97 % of control | dose: 12.0 mg/kg/injection, schedule: Q01DX Z (ip), vehicle: saline 103 % of control | dose: 12.5 mg/kg/injection, schedule: Q01DX001 (ip), vehicle: carboxymethylcellulose (CMC) 106 % of control | dose: 18.0 mg/kg/injection, schedule: Q01DX Z (ip), vehicle: saline 103 % of control | dose: 25.0 mg/kg/injection, schedule: Q01DX001 (ip), vehicle: carboxymethylcellulose (CMC) 97 % of control | dose: 50.0 mg/kg/injection, schedule: Q01DX001 (ip), vehicle: carboxymethylcellulose (CMC) 95 % of control

Cc1cc(Cl)c(OC(=O)Nc2ccccc2C(F)(F)F)cc1C
inactive: [2] 107 % of control | [4] 107 % of control | [14] 98 % of control

COc1ccc(C(=O)N/N=C/c2cc(OC)ccc2O)cc1
inactive: dose: 100.0 mg/kg/injection, schedule: Q04DX002 (ip), vehicle: Klucel (hydroxypropylcellulose) (HPC) 110 % of control | dose: 200.0 mg/kg/injection, schedule: Q04DX002 (ip), vehicle: Klucel (hydroxypropylcellulose) (HPC) 104 % of control | dose: 400.0 mg/kg/injection, schedule: Q04DX002 (ip), vehicle: Klucel (hydroxypropylcellulose) (HPC) 100 % of control

CCOC(=O)C1(c2ccccc2)CCN(CC(O)COc2cc(C)ccc2C(C)C)CC1 (stereo not drawn)
inactive: [15] 91 % of control | [1] 100 % of control | [2] 93 % of control and 97 % of control

c1ccc(-c2nc[nH]c2-c2ccccc2)cc1
inactive: [2] 96 % of control | [3] 105 % of control | [4] 91 % of control | [5] 100 % of control | [14] 96 % of control | [6] 100 % of control

O=S(=O)(O)CNc1cc(Cl)cc(Cl)c1
inactive: [3] 90 % of control | [4] 93 % of control | [5] 88 % of control | [14] 91 % of control | [6] 92 % of control

O=C(O)[C@H]1CC2CCC1C2 (stereo partly drawn)
inactive: [10] 98 % of control | [11] 102 % of control | [12] 93 % of control

O=C(O)O.[Co].[NH-]CC[N-]CC[N-]CC[NH-]
inactive: [13] 97 % of control | [7] 108 % of control | [8] 92 % of control | [9] 100 % of control

O=C(Cc1ccc(F)cc1)c1ccccc1
inactive: [10] 98 % of control | [11] 98 % of control | [12] 96 % of control

CCCCc1ccc2nc3cc4ccccc4cc3nc2c1
inactive: [13] 95 % of control | [7] 98 % of control | [8] 93 % of control | [9] 110 % of control

O=C1NC(C2CC3C=CC2C3)Nc2ccccc21 (stereo not drawn)
inactive: dose: 12.5 mg/kg/injection, schedule: Q01DX009 (ip), vehicle: Klucel (hydroxypropylcellulose) (HPC) 100 % of control | dose: 12.5 mg/kg/injection, schedule: Q04DX003 (ip), vehicle: Klucel (hydroxypropylcellulose) (HPC) 111 % of control | [15] 101 % of control | dose: 25.0 mg/kg/injection, schedule: Q04DX003 (ip), vehicle: Klucel (hydroxypropylcellulose) (HPC) 103 % of control | [1] 96 % of control | dose: 50.0 mg/kg/injection, schedule: Q04DX003 (ip), vehicle: Klucel (hydroxypropylcellulose) (HPC) 103 % of control

O=[N+]([O-])c1cccc2cn[nH]c12
inactive: dose: 25.0 mg/kg/injection, schedule: Q04DX002 (ip), vehicle: saline with Tween-80 100 % of control | dose: 50.0 mg/kg/injection, schedule: Q04DX002 (ip), vehicle: saline with Tween-80 110 % of control | dose: 100.0 mg/kg/injection, schedule: Q04DX002 (ip), vehicle: saline with Tween-80 107 % of control and 89 % of control
